Measurements taken from US20240060990A1, “SPATIAL SIGNALING NETWORKS FOR MULTIPLEXED DRUG RESPONSE MEASUREMENT AND MODELING” (Georgia Tech Research Corporation, priority 2022, published 2024).
“Also recorded” adds a separate entry of the source.

Tests used:
[1] = system: PC9 cells; assay: RapMIF pixel clustering and spatial signaling network; type: cell-based, human
Text: Pixel clustering: Pixel phenotypes were clustered in a two-step clustering pipeline (FIG. 6A). From each pixel location within the cell segmented region, the intensity value of each marker expression was extracted. The resulting feature matrix consisted of n rows of a total number of pixels and p columns equal to the number of markers. Each column of the feature matrix was min-max normalized. Then to filter out the background, each pixel location (row in the matrix) with all markers intensity lower than 0.3 was considered as background and dropped from the feature matrix. The cut-off of 0.3 was determined empirically so noise was filtered out of the cell segmented region. The feature matrix was first clustered using the K-Means algorithm with a high number of clusters (k=60). Then, the mean expression per cluster was calculated and the cluster was merged based on hierarchical clustering on the cosine similarity of the mean expression using the average linkage method with a tolerance of 0.2 of the maximum distance between clusters. The latent feature space was obtained using Uniform manifold approximation and projection (UMAP) and cluster labels were visualized by assigning each cluster color and reprojected on the UMAP embedding. A Heatmap of the mean expression level of marker per cluster was generated to show the variation of cluster phenotype.
Spatial signaling network: The network representation of spatial signaling was represented using the spatial information of pixel clustering. Each cluster was represented by a node with node size in the network proportional to the number of pixels in the corresponding cluster. For each cluster, the distribution of the neighbor cluster was calculated by looking at the 2-hop neighbor's cluster of all pixels in the cluster. The edge color represented low (blue) to high (red) neighboring probability between two clusters.

[2] = system: PC9 cells; assay: Pearson correlation of single-cell mean marker intensity (RapMIF); type: cell-based, human
Description: Correlation analysis: Correlation between pairs of cells was performed based on the mean intensity level for a pair of markers across all the cells (FIGS. 5A-5F). The correlation between pairwise markers at the cell level was investigated to identify co-expression patterns. For the correlation analysis, the Pearson correlation of pairwise markers at the single-cell level was quantified by using the mean intensity distribution for pairs of markers across the cells (FIGS. 5E-5F, FIGS. 7C-7D). The per cell mean intensity was first extracted for all markers to obtain a vector of mean intensities per cell. The nuclei and cytosol region were then separated for each cell and extracted one vector of mean intensities in the cytosol and another vector of mean intensities in the nuclei per cell. To confirm the bleaching efficiency, the mean intensity correlations of the before and after bleach images was compared. The 3-way correlation was calculated with the adjusted-R^2 value of the linear regression model of one marker predicted by the two others. Specifically, the expression of the maker on the z-axis was predicted by the two markers on the x and y-axis using a 3D scatter plot.

[3] = system: PC9 cells; assay: Subpopulation clustering of single cells (Leiden); type: cell-based, human; conditions: 40 nM
[4] = system: Mcl-1/Bak; conditions: HCC827 cells, 100 nM, 12 h, 5 PPI dataset
Description: Following that, the cells were then fixed and permeabilized with 1.6% formaldehyde in 1×PBS for 10 minutes at RT and 0.5% Triton X-100 for 10 minutes at RT, respectively. The cells were then blocked using a cell staining medium (CSM) containing 0.5% BSA, and 0.02% Sodium Azide in PBS. […] HCC827 cells were stained with p-ERK overnight followed by 1-hour incubation of secondary antibodies at RT, and 10 mins DAPI staining. The cells were then imaged at 40× magnification, and the intensity levels were analyzed. […] The coverslip was mounted to an acrylic holder for multiple cycles of staining.
RapMPI on cell cultures: For single color detection, each coverslip prepared with cells was stained with multiple PPIs with one PPI per cycle. The cells were fixed, permeabilized, and then ready for the following staining steps: 1) block the sample with Duolink blocking solution; 2) incubate it with one pair of proteins, conjugated to one PLUS and one MINUS oligonucleotide at 4° C. overnight.
PPI detection: PPI signals were detected using a custom algorithm leveraging a traditional image processing pipeline. More specifically, each PPI image was preprocessed as followed: images were first transformed using a top-hat filter of size 3 pixels to reduce the noise around PPI signals, then Laplacian of Gaussian images was used to detect bright local maxima as PPI signals. […]

[5] = system: AKT/mTOR pathways; assay: RapMPI on HCC827 xenograft tissue; type: in vivo, mouse; conditions: 2-month vs 1-week treatment
Text: (§1) Tissues: HCC827-derived mouse xenografts were provided by Dr. Sun Shi-yong (Emory University). […] Mice were then euthanized, and the tumor was embedded in OCT for sectioning. The OCT tissues were fixed in acetone, rehydrated, permeabilized in 0.4% Triton X-100, blocked, and ready for multiplexed experiments.
(§2) The staining settings were the same as the RapMPI in cell cultures. The blocking step between cycles for tissue multiplexing was skipped to avoid hiding the signals. The tissue samples were mounted with 10% glycerol made in 1×PBS and covered the slide using a 24×50 mm No. 1 coverslip (3322, Thermo Scientific) to prevent evaporation during imaging. To de-coverslip the sample after imaging, the slide was placed in a vertical jar containing 1×PBS for around 10 minutes, and the coverslip was released due to gravity.
(§3) To avoid loss of PPI information due to cell segmentation error, a nearest-distance-based assignment method was used to assign the PPI signal detected and not in any cell segmentation mask. For each PPI signal not in any segmented cell regions, the nearest cell mask pixel was observed and if the distance was lower than a user-defined value, it was assigned to the cell to which the nearest cell mask pixel belonged.

[6] = system: MEK/ERK signaling; assay: RapMPI on HCC827 xenograft tissue; type: in vivo, mouse; conditions: 2-month vs 1-week treatment
Text: as §1, §2, §3

[7] = system: cyclin E/CDK2; assay: RapMPI on HCC827 xenograft tissue; type: in vivo, mouse; conditions: 1-week treatment (responders)
Text: as §1, §2, §3

[8] = system: pancytokeratin-positive cells; assay: Pan-cytokeratin staining of HCC827 xenograft tissue; type: in vivo, mouse; conditions: 2-month treatment
Text: as §1

[9] = system: p-AKT (S473); conditions: PC9 cells; cited from earlier work
[10] = system: p-ERK; conditions: up to 24 hours; cited from earlier work
[11] = system: Mcl-1; conditions: cited from earlier work

Q: For `C=CC(=O)Nc1cc(Nc2nccc(-c3cn(C)c4ccccc34)n2)c(OC)cc1N(C)CCN(C)C` [Osimertinib], which spatial signaling networks [1] is on record?
A: altered

Q: And the “p-β-catenin clusters 12 and 19: degree of node and neighborhoods” value ([1]; 40 nM vs control)?
A: higher degree of a node and more neighborhoods with p-EGFR clusters

Q: What about the “distribution of spatial signaling network maps in the cytosol (clusters 0, 1, 2)” value ([1]; 40 nM, 48 hours vs control) of the same compound?
A: more dispersed (i.e., less aggregated) distribution in the cytosol; also recorded: more dispersed distribution in the cytosol

Q: What about the “proportion (frequency) of cluster 2 (WNT1) and cluster 6 (non-p-β-catenin)” value ([1]; after 40 nM drug treatment) of the same compound?
A: occupied a large proportion (frequency) after drug treatment

Q: And the “degree of the node of WNT1 in cluster 2” value ([1]; control vs 40 nM)?
A: reduced from 10 to 4

Q: What about the “correlation of WNT1 with p-AKT” value ([2]; 40 nM) of the same compound?
A: high correlation with p-AKT in the presence of the drug

Q: What about the “correlation between p-EGFR and non-p-β-catenin” value ([2]; 40 nM vs control) of the same compound?
A: higher positive correlation between p-EGFR and non-p-β-catenin compared to the control

Q: And the “correlation of p-EGFR with p-AKT (single-cell mean intensity)” value ([2]; 40 nM, 48 hours)?
A: high correlation to p-AKT after drug treatment

Q: And the “correlation of WNT1 with p-EGFR” value ([2]; control and 40 nM)?
A: low correlation with p-EGFR in both conditions

Q: What about the “distribution of treated cells over 12 subpopulations” value [3] of the same compound?
A: mainly distributed in subpopulation 3 and subpopulation 0

Q: And the “Mcl1/Bak interaction (PPI count), cytoplasm or whole cell” value [4]?
A: did not exhibit an obvious change

Q: What about the “AKT/mTOR pathways in pan-cytokeratin positive regions” value [5] of the same compound?
A: downregulating

Q: And the “MEK/ERK signaling in pan-cytokeratin positive regions” value [6]?
A: enhanced

Q: What about the “cyclin E/CDK2 PPI in responders” value [7] of the same compound?
A: downregulation

Q: And the pancytokeratin-positive cells [8]?
A: more pancytokeratin-positive cells

Q: And the “p-AKT (S473) level” value [9]?
A: effectively inhibit the p-AKT (S473) level

Q: And the “p-ERK, total protein level by western blot” value [10]?
A: inhibitory role of Osimertinib on p-ERK for up to 24 hours

Q: What about the Mcl-1 level [11] of the same compound?
A: downregulates Mcl-1
